# Results: US20260365670A1, “EGFR INHIBITORS AND USES THEREOF” (DIZAL (JIANGSU) PHARMACEUTICAL CO., LTD., priority 2022, published 2026)
# Read-outs that look alike come from different tables or passages of the source.
# Assays:
# [1] = molecular target: T1, EGFR[T790M/C797S/d746-750] (Homo sapiens, UniProt P00533, C797S/DEL746-750/T790M); experiment: Inhibition of EGFR[T790M/C797S/d746-750] biochemical enzymatic activity (HTRF); conditions: EGFR[T790M/C797S/d746-750], 1 mM ATP, 1 h at room temperature, read-out: IC50 @T790M - C797S - Del19
# T1 construct: purchased Carna Bio
# Description: (§1) Biological Example 1: Inhibition of EGFR WT and Mutant Biochemical Enzymatic Activity
# (§2) The inhibition potency of compounds against these enzymes was assessed using Homogenous Time Resolved Fluorescence approach (HTRF, CisBio. Cat No. 62TKOPEJ).
# (§3) Inhibitory effects of the compounds were determined by measuring the enzymatic activity of EGFR enzyme phosphorylates 1 μM TK Substrate-biotin in the presence of 1 mM adenosine-5′-triphosphate (ATP) and varying concentrations of the test compound. The enzyme reaction buffer contains 5 mM MgCl2, 1 mM MnC12, 0.01% CHAPS, 1 mM dithiothreitol (DTT), 0.5% dimethylsulfoxide (DMSO), and 1× supplemented enzymatic buffer. The WT and mutant EGFR enzymes (SignalChem) were added to plates containing inhibitors, followed by activation of the kinase reaction by addition of ATP and peptide substrates. After incubation for 1 h at room temperature, the reaction was stopped by the addition of the detection reagent mix containing EDTA. The fluorescence was measured at 615 nm and 665 nm, respectively with excitation wavelength at 320 nm. The calculated signal ratio of 665 nm/615 nm is proportional to the kinase activity. The concentration of compound producing 50% inhibition of the respective kinase (IC50) was calculated using four-parameter logistic fit with XL-FIT.
# EGFR L858R = molecular target: T2, EGFR L858R (Homo sapiens, UniProt P00533, L858R); experiment: Inhibition of EGFR L858R biochemical enzymatic activity (HTRF); conditions: 1 mM ATP, 1 h at room temperature, read-out: IC50 @L858R
# T2 construct: purchased Carna Bio
# T2 sequence (P00533 25-1210 L858R): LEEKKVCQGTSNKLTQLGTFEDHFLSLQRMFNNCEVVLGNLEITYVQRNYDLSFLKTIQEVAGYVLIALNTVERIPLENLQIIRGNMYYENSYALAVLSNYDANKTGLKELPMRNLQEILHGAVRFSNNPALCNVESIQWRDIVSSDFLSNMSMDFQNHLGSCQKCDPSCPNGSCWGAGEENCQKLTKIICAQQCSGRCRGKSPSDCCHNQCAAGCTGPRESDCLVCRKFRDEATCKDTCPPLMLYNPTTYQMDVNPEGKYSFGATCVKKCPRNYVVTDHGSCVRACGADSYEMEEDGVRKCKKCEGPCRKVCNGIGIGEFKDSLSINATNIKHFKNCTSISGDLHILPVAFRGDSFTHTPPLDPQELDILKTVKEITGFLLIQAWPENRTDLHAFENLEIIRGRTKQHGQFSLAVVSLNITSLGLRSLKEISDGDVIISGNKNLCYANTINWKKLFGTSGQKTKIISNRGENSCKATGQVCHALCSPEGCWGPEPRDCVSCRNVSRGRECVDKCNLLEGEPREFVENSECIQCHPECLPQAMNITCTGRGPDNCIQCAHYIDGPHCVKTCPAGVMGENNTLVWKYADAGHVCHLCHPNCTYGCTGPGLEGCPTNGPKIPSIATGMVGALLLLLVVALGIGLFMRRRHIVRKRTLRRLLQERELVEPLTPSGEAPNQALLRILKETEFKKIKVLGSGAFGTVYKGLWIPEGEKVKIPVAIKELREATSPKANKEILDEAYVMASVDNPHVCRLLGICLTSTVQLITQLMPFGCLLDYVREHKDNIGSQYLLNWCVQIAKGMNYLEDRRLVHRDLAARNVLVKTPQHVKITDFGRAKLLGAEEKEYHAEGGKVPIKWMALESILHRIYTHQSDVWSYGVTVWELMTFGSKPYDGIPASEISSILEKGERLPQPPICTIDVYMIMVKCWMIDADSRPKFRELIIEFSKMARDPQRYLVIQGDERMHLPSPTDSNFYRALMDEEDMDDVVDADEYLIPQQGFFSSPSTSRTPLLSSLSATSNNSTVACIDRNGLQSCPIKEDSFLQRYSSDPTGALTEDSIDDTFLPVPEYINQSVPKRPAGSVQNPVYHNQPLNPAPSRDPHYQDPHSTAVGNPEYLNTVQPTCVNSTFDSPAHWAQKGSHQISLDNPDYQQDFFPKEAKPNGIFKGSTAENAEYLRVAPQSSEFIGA
# Description: as §1, §2, §3
# EGFR[T790M/C797S/L858R] = molecular target: T3, EGFR[T790M/C797S/L858R] (Homo sapiens, UniProt P00533, C797S/L858R/T790M); experiment: Inhibition of EGFR[T790M/C797S/L858R] biochemical enzymatic activity (HTRF); conditions: EGFR[T790M/C797S/L858R], 1 mM ATP, 1 h at room temperature, read-out: IC50 @T790M- C797S - L858R
# T3 construct: purchased Carna Bio
# T3 sequence (P00533 25-1210 T790M/C797S/L858R): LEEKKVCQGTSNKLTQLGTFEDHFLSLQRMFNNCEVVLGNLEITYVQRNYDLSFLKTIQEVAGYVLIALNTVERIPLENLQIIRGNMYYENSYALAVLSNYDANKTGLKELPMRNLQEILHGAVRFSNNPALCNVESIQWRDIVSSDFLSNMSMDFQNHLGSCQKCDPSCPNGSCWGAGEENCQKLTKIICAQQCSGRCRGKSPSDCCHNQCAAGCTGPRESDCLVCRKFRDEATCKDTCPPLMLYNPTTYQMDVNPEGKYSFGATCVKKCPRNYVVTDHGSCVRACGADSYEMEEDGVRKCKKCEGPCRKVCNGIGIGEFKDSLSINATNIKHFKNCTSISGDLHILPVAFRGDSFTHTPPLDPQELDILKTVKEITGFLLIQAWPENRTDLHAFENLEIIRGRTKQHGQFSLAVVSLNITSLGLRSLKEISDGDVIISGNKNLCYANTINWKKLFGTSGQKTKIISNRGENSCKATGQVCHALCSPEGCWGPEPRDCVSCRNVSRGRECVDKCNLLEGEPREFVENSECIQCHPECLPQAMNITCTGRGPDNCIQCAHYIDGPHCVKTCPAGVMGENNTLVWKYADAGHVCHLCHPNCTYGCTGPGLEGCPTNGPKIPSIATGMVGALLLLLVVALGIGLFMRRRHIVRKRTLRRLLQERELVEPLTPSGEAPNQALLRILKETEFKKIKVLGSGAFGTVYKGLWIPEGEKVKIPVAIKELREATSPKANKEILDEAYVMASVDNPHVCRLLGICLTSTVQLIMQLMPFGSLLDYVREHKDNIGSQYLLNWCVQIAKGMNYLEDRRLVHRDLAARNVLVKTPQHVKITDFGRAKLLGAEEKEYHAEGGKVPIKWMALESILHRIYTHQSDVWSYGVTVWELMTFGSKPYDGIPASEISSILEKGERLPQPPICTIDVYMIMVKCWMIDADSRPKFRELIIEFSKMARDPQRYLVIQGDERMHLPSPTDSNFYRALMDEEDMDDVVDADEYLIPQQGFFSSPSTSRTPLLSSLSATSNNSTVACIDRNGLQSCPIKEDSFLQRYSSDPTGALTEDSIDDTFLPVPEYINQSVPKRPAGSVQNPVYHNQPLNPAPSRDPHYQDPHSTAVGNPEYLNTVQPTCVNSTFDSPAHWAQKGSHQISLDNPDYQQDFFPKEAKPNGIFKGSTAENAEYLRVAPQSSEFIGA
# Description: as §1, §2, §3
# EGFR Exon19Del = molecular target: T4, EGFR Exon19Del (Homo sapiens, UniProt P00533, DEL746-750); experiment: Inhibition of EGFR Exon19Del biochemical enzymatic activity (HTRF); conditions: EGFR Exon19Del, 1 mM ATP, 1 h at room temperature, read-out: IC50 @Del19
# T4 construct: purchased Carna Bio
# Description: as §1, §2, §3
# EGFR wild type = molecular target: T5, EGFR wild type (Homo sapiens, UniProt P00533); experiment: Inhibition of EGFR wild type biochemical enzymatic activity (HTRF); conditions: EGFR wild type, 1 mM ATP, 1 h at room temperature, read-out: IC50 @WT
# T5 construct: purchased Carna Bio
# Description: as §1, §2, §3
# EGFR L858R/T790M = molecular target: T6, EGFR L858R/T790M (Homo sapiens, UniProt P00533, L858R/T790M); experiment: Inhibition of EGFR L858R/T790M biochemical enzymatic activity (HTRF); conditions: EGFR L858R/T790M, 1 mM ATP, 1 h at room temperature, read-out: IC50 @L858R-T790M
# T6 construct: purchased Carna Bio
# T6 sequence (P00533 25-1210 T790M/L858R): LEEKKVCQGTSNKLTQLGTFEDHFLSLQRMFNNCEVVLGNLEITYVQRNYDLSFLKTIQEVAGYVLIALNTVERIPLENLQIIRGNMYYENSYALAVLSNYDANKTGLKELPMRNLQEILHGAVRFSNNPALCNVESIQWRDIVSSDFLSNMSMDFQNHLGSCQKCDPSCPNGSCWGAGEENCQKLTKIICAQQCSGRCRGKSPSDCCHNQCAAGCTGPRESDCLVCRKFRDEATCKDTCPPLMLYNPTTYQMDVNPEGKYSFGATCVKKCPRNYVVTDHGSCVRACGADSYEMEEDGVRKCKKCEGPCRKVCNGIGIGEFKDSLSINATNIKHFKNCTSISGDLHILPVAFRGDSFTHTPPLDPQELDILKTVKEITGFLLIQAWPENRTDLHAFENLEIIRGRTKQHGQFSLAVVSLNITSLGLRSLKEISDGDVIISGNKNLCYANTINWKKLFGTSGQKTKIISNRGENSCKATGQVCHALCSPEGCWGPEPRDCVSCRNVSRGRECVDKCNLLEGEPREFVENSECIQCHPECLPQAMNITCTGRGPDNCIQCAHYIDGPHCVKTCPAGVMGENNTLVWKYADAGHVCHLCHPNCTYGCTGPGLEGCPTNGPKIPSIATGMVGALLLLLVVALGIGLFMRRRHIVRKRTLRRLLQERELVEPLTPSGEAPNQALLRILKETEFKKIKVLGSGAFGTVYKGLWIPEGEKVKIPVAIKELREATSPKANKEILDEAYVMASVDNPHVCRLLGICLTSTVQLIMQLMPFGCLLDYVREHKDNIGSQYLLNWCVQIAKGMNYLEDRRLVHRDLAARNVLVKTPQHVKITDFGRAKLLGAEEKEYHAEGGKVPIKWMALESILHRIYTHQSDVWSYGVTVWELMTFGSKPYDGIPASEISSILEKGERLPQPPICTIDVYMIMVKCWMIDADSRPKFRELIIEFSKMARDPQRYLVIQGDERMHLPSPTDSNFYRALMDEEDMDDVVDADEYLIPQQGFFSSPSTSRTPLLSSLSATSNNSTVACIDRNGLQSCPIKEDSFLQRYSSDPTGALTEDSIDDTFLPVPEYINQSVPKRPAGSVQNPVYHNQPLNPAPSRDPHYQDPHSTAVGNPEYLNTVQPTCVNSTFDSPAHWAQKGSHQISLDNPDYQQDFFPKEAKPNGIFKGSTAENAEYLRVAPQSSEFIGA
# Description: as §1, §2, §3
# EGFR (C797S L858R) = molecular target: T7, EGFR (C797S L858R) (Homo sapiens, UniProt P00533, C797S/L858R); experiment: Inhibition of EGFR (C797S L858R) biochemical enzymatic activity (HTRF); conditions: EGFR (C797S L858R), 1 mM ATP, 1 h at room temperature, read-out: IC50 @L858-C797S
# T7 construct: purchased signalchem
# Description: as §1, §2, §3
# [2] = tested on: Ba/F3 cells expressing EGFR mutations; experiment: Cell proliferation assay, Ba/F3 cells expressing EGFR mutations (CellTiter-Glo, 72 hours); format: cell-based
# Description: (§4) Biological Example 2: Cell Proliferation Assays
# (§5) Ba/F3 cells expressing EGFR mutations were seeded in 384-well plates at 5000 cells/well in RPMI1640 medium containing […]. PC-9 at 500 cells/well was seeded into 384-well plates in RPMI1640 medium with 10% FBS. After overnight incubation, the assay plates were dosed with compounds at a series of concentrations. Alongside dosing the assay plates, the day 0 plate was processed using CellTiter-Glo® Luminescent Cell Viability Assay (Promega) to measure the number of viable cells (G0). The assay plates were further incubated for 72 hours and the number of viable cells (G3) was measured. The percentage of proliferation was calculated as: […]=100×(G3 value of sample well−G0 value)/(G3 value of DMSO control−G0 value). The concentration of compound producing 50% proliferation inhibition (GI50) was further calculated in best-fit curves using XLFit software. N/A=not available.
# PC-9 = experiment: Cell proliferation assay, PC-9 cells (CellTiter-Glo, 72 hours); format: cell-based; conditions: PC9 cells, read-out: GI50 PC9
# Description: as §4, §5
# EGFR Exon19Del/T790M = molecular target: T8, EGFR Exon19Del/T790M (Homo sapiens, UniProt P00533, DEL746-750/T790M); experiment: Inhibition of EGFR Exon19Del/T790M biochemical enzymatic activity (HTRF); conditions: EGFR Exon19Del/T790M, 1 mM ATP, 1 h at room temperature, read-out: IC50 @Del19-T790M
# T8 construct: purchased Carna Bio
# T8 sequence (P00533 with tags, fused parts or gaps DEL746-750/T790M limits assumed): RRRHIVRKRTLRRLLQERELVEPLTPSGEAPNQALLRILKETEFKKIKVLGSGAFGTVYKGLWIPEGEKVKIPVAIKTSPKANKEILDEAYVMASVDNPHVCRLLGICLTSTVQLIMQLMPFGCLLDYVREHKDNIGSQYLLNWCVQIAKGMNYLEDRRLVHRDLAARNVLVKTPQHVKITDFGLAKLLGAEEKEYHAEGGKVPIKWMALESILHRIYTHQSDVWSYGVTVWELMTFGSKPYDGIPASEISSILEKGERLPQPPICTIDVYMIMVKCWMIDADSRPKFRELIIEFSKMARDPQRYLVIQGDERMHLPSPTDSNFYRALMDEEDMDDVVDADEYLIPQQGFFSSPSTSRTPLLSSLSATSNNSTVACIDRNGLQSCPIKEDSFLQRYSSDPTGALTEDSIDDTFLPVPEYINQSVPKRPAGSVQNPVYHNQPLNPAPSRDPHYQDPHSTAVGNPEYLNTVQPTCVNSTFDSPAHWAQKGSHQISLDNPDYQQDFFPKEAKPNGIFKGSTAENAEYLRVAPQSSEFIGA
# Description: as §1, §2, §3
# EGFR (d746-750 C797S) = molecular target: T9, EGFR (d746-750 C797S) (Homo sapiens, UniProt P00533, C797S/DEL746-750); experiment: Inhibition of EGFR (d746-750 C797S) biochemical enzymatic activity (HTRF); conditions: EGFR (d746-750 C797S), 1 mM ATP, 1 h at room temperature, read-out: IC50 @Del19-C797S
# T9 construct: purchased signalchem
# T9 sequence (P00533 with tags, fused parts or gaps DEL746-750/C797S limits assumed): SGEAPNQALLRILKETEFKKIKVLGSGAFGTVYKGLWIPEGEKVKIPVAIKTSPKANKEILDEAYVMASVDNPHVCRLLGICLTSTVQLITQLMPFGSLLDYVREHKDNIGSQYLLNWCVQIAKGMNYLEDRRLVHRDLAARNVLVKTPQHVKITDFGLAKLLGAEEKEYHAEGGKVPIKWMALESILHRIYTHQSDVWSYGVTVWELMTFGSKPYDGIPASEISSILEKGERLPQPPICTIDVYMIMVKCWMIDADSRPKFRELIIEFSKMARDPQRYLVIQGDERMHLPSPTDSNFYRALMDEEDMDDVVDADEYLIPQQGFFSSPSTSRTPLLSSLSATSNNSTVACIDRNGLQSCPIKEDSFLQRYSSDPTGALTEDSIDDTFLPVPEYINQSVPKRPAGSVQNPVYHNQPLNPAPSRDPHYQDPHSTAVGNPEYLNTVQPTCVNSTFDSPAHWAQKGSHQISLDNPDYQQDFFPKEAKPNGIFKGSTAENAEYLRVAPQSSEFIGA
# Description: as §1, §2, §3
# [3] = BaF3 cells, EGFR DEL19 - C797S, read-out: GI50 DEL19 - C797S/BaF3
# [4] = BaF3 cells, EGFR DEL19 - T790-C797S, read-out: GI50 DEL19 - T790-C797S/BaF3
# [5] = BaF3 cells, EGFR L858R - C797S, read-out: GI50 L858R - C797S/BaF3
# [6] = BaF3 cells, EGFR L858R - T790-C797S, read-out: GI50 L858R - T790-C797S/BaF3
# [7] = BaF3 cells, EGFR L858R - T790M, read-out: GI50 L858R - T790M/BaF3
# [8] = BaF3 cells, EGFR L858R, read-out: GI50 L858R/BaF3
# [9] = EGFR DEL19 - T790M, read-out: GI50 DEL19 - T790M
SMILES,IC50 [1] [µM],IC50 (EGFR L858R) [µM],IC50 (EGFR[T790M/C797S/L858R]) [µM],IC50 (EGFR Exon19Del) [µM],IC50 (EGFR wild type) [µM],IC50 (EGFR L858R/T790M) [µM],IC50 (EGFR (C797S L858R)) [µM],IC50 (EGFR Exon19Del/T790M) [µM],IC50 (EGFR (d746-750 C797S)) [µM],"GI50 [2, 3] [µM]","GI50 [2, 4] [µM]","GI50 [2, 5] [µM]","GI50 [2, 6] [µM]","GI50 [2, 7] [µM]","GI50 [2, 8] [µM]","GI50 [2, 9] [µM]",GI50 (PC-9) [µM],other results
"Cc1cc2cc(n1)-c1cnn(C)c1OCCCCCn1c(nc3ccn(C)c(=O)c31)NC2=O [Example B20, 5,16,26-Trimethyl-7-oxa-4,5,13,16,20,22,27-heptaazapentacyclo[22.3.1.0^{2,6}.0^{13,21}.0^{14,19}]octacosa-1(27),2(6),3,14(19),17,20,24(28),25-octaene-15,23-dione]",0.122,> 5,> 5,> 5,> 5,> 5,> 5,0.685,> 5,–,–,–,–,–,–,–,–,"GI50 ([2]; Mus musculus, BaF3, 72 h, BaF3 cells, EGFR DEL19 - C797S, read-out: GI50 DEL19 - C797S/BaF3): 0.487 µM; GI50 ([2]; Mus musculus, BaF3, 72 h, BaF3 cells, EGFR DEL19 - T790-C797S, read-out: GI50 DEL19 - T790-C797S/BaF3): 0.258 µM; GI50 ([2]; Mus musculus, BaF3, 72 h, BaF3 cells, EGFR L858R - C797S, read-out: GI50 L858R - C797S/BaF3): 10 µM; GI50 ([2]; Mus musculus, BaF3, 72 h, BaF3 cells, EGFR L858R - T790-C797S, read-out: GI50 L858R - T790-C797S/BaF3): 0.159 µM; GI50 ([2]; Mus musculus, BaF3, 72 h, BaF3 cells, EGFR L858R - T790M, read-out: GI50 L858R - T790M/BaF3): 1.02 µM; GI50 ([2]; Mus musculus, BaF3, 72 h, BaF3 cells, EGFR L858R, read-out: GI50 L858R/BaF3): 2.04 µM; GI50 ([2]; Mus musculus, BaF3, 72 h, EGFR DEL19 - T790M, read-out: GI50 DEL19 - T790M): 0.331 µM; GI50 (PC-9; Homo sapiens, PC-9, 72 h): 1.28 µM"
"Cc1cc2cc(n1)-c1cnn(C)c1OCCN1CC3CCC(C3)(C1)n1c(nc3ccc(N4CCC(N5CCOCC5)C4)cc31)NC2=O (single isomer, unassigned) [Example B44A]",4.64,> 5,> 5,> 5,–,> 5,> 5,> 5,> 5,0.312,0.321,0.624,0.052,0.326,3,0.368,1.4,–
"CCN1CCN(c2ccc3nc4n(c3c2)C23CCC(CN(CCOc5c(cnn5C)-c5cc(cc(C)n5)C(=O)N4)C2)C3)CC1 (single isomer, unassigned) [Example B56A]",0.36,> 5,> 5,3.18,> 5,> 5,> 5,1.32,2.39,0.082,0.145,0.417,0.058,0.08,1.03,0.23,0.443,–
